Results taken from PMC2765192 (Journal of medicinal chemistry, 2009).

Legend:
[1] = biological target: T1, human mGluR4 (Homo sapiens, UniProt Q14833); experiment: Fold shift of glutamate concentration-response curve, human mGluR4/Gqi5 cells; conditions: fold shift of glutamate response curve to the left
[2] = biological target: T1, human mGluR4; format: cell-based; conditions: for mGluR4 PAM activity (in words): human mGluR4
[3] = Metabolic stability in rat liver microsomes; conditions: parent remaining after the incubation period
[4] = Metabolic stability in human liver microsomes; conditions: parent remaining after the incubation period
[5] = biological target: mGluR8 (Homo sapiens, UniProt O00222); experiment: mGluR subtype selectivity: mGluR8; conditions: for separation in potencies compared to mGluR4: mGluR8 vs mGluR4; for PAM activity at mGluR8 (in words): selectivity
[6] = biological target: mGluR5 (Homo sapiens, UniProt P41594); experiment: mGluR subtype selectivity: mGluR5; conditions: for separation in potencies compared to mGluR4: mGluR5 vs mGluR4; for PAM activity at mGluR5 (in words): selectivity
[7] = Rat pharmacokinetics, brain and plasma levels after intraperitoneal dosing; conditions: rats, nontoxic vehicles
[8] = biological target: rat mGluR4 (Rattus norvegicus, UniProt P31423)
Sequence of rat mGluR4 (P31423 33-912): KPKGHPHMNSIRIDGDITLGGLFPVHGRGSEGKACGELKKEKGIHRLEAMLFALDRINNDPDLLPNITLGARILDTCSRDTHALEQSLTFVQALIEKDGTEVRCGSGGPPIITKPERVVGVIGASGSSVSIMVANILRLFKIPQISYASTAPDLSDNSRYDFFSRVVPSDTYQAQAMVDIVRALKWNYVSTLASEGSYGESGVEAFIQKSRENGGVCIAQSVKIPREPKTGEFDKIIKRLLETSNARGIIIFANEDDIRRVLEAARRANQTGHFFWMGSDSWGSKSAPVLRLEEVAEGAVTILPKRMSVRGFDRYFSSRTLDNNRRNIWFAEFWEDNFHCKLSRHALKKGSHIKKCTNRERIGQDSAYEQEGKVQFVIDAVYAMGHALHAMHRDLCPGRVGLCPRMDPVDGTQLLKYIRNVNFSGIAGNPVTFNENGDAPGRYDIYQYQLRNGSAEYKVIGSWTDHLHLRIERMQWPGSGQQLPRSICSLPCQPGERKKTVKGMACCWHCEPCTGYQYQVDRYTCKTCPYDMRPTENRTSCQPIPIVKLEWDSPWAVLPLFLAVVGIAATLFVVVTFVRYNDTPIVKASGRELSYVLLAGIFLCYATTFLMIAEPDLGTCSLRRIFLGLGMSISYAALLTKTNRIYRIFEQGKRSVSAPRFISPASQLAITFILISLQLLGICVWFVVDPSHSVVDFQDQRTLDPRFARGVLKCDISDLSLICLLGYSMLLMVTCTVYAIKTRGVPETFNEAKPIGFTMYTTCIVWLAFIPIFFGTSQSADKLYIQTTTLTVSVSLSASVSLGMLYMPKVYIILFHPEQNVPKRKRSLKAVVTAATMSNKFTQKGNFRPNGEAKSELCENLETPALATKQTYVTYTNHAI

Sequence of mGluR8 (O00222 34-908, species assumed): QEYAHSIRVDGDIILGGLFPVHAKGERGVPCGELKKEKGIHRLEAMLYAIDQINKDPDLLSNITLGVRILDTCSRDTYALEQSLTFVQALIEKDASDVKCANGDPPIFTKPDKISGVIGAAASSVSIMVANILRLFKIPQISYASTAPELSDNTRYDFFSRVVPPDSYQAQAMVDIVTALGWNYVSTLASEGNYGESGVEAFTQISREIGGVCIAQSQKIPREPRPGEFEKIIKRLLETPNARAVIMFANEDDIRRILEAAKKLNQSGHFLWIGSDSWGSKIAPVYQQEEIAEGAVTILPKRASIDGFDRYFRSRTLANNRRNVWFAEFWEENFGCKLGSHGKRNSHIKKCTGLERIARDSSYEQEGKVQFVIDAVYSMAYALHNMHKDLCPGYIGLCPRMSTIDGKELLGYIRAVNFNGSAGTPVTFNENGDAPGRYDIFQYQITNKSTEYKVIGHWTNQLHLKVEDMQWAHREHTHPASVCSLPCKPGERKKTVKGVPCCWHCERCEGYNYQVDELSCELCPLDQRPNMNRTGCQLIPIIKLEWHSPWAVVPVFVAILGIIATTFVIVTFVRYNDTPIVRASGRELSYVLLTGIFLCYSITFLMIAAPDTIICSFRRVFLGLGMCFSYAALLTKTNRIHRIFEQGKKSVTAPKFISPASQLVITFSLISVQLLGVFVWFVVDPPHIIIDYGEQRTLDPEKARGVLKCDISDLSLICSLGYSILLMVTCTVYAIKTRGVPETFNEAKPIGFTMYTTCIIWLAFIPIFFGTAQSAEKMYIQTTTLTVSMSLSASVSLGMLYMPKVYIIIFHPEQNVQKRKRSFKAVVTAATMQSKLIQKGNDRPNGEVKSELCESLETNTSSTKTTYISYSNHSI
T1 sequence (Q14833 33-912): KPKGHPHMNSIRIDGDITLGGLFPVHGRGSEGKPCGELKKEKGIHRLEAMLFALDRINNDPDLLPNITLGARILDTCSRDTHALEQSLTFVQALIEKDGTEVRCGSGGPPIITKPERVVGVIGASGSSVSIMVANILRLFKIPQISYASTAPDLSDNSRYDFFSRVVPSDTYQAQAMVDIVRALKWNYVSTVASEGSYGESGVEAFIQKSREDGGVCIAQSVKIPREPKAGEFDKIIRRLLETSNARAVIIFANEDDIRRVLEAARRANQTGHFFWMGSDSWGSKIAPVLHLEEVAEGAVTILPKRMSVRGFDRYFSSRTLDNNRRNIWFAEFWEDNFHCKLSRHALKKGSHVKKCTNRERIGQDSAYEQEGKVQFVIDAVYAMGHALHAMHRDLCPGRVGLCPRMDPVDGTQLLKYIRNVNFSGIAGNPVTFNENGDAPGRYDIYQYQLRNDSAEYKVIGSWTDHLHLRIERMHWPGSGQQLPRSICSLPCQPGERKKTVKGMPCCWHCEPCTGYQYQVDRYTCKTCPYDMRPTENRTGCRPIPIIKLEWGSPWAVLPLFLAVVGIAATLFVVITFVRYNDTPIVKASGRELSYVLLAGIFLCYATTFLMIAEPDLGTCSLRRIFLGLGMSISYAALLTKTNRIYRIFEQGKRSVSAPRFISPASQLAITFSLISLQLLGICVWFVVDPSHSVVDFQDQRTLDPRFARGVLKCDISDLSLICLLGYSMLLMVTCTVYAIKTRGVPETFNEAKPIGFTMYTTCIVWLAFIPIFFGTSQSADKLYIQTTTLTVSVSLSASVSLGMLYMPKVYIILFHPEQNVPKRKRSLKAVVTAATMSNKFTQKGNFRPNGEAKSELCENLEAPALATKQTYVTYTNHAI
Sequence of mGluR5 (P41594 21-1212): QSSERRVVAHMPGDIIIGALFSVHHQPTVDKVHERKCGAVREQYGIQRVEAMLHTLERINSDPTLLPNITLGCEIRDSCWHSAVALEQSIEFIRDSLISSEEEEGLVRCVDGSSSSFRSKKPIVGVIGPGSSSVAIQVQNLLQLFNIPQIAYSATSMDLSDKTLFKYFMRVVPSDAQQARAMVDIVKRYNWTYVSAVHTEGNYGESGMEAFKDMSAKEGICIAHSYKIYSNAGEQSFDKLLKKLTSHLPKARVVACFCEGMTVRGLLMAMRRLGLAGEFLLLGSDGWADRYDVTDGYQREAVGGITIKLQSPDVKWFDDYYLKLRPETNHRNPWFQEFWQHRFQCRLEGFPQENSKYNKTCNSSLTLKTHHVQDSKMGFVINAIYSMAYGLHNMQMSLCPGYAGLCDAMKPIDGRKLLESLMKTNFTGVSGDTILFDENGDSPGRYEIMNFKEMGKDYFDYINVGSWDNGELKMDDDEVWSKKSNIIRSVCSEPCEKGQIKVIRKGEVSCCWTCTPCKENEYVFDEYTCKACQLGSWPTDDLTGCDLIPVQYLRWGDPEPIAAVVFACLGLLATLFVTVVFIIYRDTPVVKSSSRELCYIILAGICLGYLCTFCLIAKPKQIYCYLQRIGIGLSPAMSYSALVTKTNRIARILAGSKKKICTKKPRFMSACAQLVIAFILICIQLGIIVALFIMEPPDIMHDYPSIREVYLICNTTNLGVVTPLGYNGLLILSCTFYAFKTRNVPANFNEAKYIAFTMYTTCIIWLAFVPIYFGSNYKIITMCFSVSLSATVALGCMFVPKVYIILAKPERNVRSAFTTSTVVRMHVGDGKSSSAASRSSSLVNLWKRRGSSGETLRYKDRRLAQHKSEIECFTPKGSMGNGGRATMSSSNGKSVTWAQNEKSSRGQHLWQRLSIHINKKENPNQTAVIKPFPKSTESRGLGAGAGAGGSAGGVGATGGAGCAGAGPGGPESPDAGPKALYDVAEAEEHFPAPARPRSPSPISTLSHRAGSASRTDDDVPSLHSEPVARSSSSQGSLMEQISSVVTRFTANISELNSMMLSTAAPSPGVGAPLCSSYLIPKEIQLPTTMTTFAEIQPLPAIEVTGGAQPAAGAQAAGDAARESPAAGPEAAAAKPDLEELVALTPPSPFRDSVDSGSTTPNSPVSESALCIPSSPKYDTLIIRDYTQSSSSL

SMILES | mGluR4 PAM activity (in words) [2] | RLM (% remaining) [3] [% remaining] | HLM (% remaining) [4] [% remaining] | other results
O=C(Nc1ccccc1)[C@]12C[C@H]1/C(=N\O)c1ccccc1O2 [Compound 1, (-)-PHCCC] |  |  |  | FS (h) [1]: 7.0±0.2
O=C(Nc1ccc(Cl)c(Cl)c1)C1CCCCC1 [Compound 8h] | inactive |  |  | 
O=C(Nc1ccc(Cl)c(Cl)c1)c1ccccc1 [Compound 8i] | inactive |  |  | 
O=C(Nc1ccc(Cl)c(Cl)c1)c1cnccn1 [Compound 8k] | lost activity |  |  | 
O=C(Nc1ccc(Cl)c(Cl)c1)c1ccncn1 [Compound 8l] | retained potency |  |  | 
COc1cc(NC(=O)c2ccccn2)ccc1F [Compound 9a] |  | 6.3 | 3.0 | 
COc1cc(NC(=O)c2ccccn2)ccc1Cl [Compound 9b] | submicromolar potency | 1.8 | 5.3 | separation in potencies compared to mGluR4 [5]: > 20 fold; PAM activity at mGluR8 (in words) [5]: weak PAM activity; separation in potencies compared to mGluR4 [6]: > 20 fold; PAM activity at mGluR5 (in words) [6]: weak PAM activity; central penetration (in words) [7]: centrally penetrant; potency at rat mGluR4 (in words) [8]: submicromolar potency
O=C(Nc1cccc(OC(F)F)c1)c1ccccn1 [Compound 9c] | submicromolar potency | 1.4 | 2.4 | separation in potencies compared to mGluR4 [5]: > 20 fold; PAM activity at mGluR8 (in words) [5]: weak PAM activity; separation in potencies compared to mGluR4 [6]: > 20 fold; PAM activity at mGluR5 (in words) [6]: weak PAM activity; central penetration (in words) [7]: centrally penetrant; potency at rat mGluR4 (in words) [8]: submicromolar potency
O=C(Nc1cccc(OC(F)(F)F)c1)c1ccccn1 [Compound 9d] |  | 20 | 22 | loss of activity ([2]; 9d (trifluoromethoxy) vs. 9c (difluoromethoxy)): > 10 fold
O=C(Nc1cccc(C(F)(F)F)c1)c1ccccn1 [Compound 9e] |  | 19 |  | 
O=C(Nc1cccc(C(F)(F)F)n1)c1ccccn1 [Compound 9o] | inactive |  |  | 
COc1cc(NC(=O)c2ccccn2)ncn1 [Compound 9p] | inactive |  |  | 
